This note sets out measurements from PMC5564600 (Oncotarget, 2017).

Holding throughout (assay): biochemical
Type in all cases: binding

Test [1] deals with T1, panel of 442 kinases (Homo sapiens, UniProt Q7L7X3).
T1 construct: purchased Ambit Biosciences (scanMAXX KINOMEscan)
T1 sequence (Q7L7X3 1-1001): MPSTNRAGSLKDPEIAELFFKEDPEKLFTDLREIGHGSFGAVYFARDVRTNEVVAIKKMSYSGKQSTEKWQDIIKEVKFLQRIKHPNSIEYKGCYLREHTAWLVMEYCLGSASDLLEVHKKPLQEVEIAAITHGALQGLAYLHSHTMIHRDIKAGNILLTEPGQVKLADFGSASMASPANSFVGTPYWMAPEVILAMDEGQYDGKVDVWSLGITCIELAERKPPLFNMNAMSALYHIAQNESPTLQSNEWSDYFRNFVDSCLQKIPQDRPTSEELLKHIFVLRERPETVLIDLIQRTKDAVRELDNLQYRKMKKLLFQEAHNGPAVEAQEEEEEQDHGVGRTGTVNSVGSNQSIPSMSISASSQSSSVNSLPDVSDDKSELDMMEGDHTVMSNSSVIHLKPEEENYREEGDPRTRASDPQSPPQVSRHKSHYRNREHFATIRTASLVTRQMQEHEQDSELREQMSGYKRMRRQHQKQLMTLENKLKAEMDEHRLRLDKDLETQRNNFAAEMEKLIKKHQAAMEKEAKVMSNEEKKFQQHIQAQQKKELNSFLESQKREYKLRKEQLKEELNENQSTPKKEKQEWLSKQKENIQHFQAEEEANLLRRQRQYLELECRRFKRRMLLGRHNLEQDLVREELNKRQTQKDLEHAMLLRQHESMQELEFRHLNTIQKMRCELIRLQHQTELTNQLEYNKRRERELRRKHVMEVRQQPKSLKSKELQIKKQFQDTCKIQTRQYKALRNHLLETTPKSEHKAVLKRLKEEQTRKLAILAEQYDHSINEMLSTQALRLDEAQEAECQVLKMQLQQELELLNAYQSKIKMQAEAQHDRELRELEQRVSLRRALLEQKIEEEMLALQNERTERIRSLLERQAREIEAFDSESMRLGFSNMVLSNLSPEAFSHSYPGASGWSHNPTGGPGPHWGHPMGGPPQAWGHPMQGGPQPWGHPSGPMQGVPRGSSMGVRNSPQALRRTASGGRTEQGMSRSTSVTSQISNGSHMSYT
Particulars: kinase TAOK1; for remaining activity at 1 µM: read-out: TAOK1 (% of control at 1 µM).

Test [2] concerns the target T2, panel of 442 kinases (Homo sapiens, UniProt Q5VT25).
T2 construct: purchased Ambit Biosciences (scanMAXX KINOMEscan)
Particulars: kinase MRCKA; for remaining activity at 1 µM: read-out: % of control at 1 µM.

For test [3], the target named is T3, panel of 442 kinases (Homo sapiens, UniProt Q12852).
T3 construct: purchased Ambit Biosciences (scanMAXX KINOMEscan)
T3 sequence (Q12852 1-859): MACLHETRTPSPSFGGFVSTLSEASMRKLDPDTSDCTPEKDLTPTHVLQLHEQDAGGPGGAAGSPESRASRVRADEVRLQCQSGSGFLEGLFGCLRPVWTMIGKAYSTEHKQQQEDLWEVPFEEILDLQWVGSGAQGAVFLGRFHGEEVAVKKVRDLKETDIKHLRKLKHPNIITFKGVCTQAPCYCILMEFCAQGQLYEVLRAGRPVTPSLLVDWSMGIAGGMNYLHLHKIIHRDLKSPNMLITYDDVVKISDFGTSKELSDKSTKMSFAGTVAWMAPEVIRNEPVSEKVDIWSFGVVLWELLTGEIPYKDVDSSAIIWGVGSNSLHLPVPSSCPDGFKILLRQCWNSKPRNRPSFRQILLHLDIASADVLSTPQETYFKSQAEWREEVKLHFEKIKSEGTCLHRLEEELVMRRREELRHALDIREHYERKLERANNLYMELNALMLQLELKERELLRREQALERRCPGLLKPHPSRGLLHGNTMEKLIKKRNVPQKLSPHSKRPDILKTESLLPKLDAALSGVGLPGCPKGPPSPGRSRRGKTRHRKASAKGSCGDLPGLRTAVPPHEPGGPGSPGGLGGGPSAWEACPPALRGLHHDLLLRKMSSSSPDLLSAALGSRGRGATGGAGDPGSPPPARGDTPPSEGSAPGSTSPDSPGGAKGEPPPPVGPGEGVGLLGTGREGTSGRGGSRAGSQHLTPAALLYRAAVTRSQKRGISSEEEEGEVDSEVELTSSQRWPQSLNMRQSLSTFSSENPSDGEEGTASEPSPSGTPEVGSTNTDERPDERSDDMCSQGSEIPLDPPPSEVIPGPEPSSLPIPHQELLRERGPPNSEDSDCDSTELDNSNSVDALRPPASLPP
Particulars: DLK; for remaining activity at 1 µM: read-out: % of control at 1 µM.

For test [4], the target named is T4, panel of 442 kinases (Homo sapiens, UniProt Q07912).
T4 construct: purchased Ambit Biosciences (scanMAXX KINOMEscan)
T4 sequence (Q07912 whole entry): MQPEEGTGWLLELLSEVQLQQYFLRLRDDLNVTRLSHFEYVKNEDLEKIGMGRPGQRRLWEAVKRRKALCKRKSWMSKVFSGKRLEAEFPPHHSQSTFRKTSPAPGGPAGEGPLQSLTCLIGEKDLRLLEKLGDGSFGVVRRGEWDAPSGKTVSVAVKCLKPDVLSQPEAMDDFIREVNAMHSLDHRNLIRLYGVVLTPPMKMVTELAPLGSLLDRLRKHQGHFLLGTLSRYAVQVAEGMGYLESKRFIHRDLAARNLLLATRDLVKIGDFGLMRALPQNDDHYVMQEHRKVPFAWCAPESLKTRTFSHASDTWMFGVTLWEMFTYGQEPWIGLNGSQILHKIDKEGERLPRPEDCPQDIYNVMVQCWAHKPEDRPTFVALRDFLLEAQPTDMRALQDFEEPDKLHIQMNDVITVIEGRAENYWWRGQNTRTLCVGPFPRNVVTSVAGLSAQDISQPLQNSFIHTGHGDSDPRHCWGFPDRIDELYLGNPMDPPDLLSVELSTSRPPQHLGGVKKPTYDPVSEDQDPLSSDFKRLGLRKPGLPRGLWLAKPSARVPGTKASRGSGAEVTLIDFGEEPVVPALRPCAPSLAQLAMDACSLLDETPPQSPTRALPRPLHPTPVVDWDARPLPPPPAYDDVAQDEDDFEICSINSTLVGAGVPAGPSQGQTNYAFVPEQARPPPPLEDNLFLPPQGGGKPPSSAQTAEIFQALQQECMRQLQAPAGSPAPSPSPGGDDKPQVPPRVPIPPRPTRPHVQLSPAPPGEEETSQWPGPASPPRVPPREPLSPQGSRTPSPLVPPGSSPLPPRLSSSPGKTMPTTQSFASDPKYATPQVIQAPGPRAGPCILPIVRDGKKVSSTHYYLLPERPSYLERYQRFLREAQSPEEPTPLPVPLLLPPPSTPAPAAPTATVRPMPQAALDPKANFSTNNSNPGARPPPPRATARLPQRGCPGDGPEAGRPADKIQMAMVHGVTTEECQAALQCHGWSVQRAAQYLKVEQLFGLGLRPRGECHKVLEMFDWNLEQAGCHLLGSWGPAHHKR
Particulars: kinase TNK2; for remaining activity at 1 µM: read-out: TNK2 (% of control at 1 µM).

For test [5], the target named is T5, panel of 442 kinases (Homo sapiens, UniProt P19525).
T5 construct: purchased Ambit Biosciences (scanMAXX KINOMEscan)
T5 sequence (P19525 whole entry): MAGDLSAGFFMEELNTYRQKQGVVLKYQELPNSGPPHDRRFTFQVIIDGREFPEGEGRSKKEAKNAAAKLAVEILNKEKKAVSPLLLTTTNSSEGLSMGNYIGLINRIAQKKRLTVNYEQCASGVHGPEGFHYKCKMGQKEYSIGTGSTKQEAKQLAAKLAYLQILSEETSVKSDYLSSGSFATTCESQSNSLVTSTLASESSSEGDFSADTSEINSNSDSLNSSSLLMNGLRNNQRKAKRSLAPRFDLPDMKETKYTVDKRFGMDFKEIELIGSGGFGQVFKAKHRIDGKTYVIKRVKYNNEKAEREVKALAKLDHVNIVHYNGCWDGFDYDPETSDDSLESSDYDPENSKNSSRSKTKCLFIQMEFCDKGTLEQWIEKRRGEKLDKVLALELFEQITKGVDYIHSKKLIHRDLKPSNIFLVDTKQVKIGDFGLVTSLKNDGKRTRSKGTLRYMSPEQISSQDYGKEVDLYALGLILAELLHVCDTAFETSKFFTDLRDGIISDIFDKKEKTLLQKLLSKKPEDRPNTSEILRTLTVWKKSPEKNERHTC
Particulars: kinase PRKR; for remaining activity at 1 µM: read-out: PRKR (% of control at 1 µM).

The target in test [6] is T6, panel of 442 kinases (Homo sapiens, UniProt P37173).
T6 construct: purchased Ambit Biosciences (scanMAXX KINOMEscan)
T6 sequence (P37173 23-567): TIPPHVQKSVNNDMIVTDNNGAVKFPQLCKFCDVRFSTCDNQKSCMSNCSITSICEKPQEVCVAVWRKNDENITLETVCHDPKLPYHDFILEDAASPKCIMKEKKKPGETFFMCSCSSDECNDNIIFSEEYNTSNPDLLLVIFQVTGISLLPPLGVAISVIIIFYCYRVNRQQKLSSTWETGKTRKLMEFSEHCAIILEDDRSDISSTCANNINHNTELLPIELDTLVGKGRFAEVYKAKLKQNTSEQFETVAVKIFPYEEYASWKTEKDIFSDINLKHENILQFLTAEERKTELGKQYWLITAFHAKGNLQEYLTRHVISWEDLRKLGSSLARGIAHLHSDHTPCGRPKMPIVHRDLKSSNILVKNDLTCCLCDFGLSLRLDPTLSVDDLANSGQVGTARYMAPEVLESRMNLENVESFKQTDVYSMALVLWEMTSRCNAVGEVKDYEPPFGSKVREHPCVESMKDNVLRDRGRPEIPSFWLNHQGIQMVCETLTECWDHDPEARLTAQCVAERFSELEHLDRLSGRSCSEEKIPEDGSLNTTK
Particulars: kinase TGFBR2; for remaining activity at 1 µM: read-out: TGFBR2 (% of control at 1 µM).

Test [7] addresses T7, panel of 442 kinases (Homo sapiens, UniProt Q8NE63).
T7 construct: purchased Ambit Biosciences (scanMAXX KINOMEscan)
T7 sequence (Q8NE63 1-616): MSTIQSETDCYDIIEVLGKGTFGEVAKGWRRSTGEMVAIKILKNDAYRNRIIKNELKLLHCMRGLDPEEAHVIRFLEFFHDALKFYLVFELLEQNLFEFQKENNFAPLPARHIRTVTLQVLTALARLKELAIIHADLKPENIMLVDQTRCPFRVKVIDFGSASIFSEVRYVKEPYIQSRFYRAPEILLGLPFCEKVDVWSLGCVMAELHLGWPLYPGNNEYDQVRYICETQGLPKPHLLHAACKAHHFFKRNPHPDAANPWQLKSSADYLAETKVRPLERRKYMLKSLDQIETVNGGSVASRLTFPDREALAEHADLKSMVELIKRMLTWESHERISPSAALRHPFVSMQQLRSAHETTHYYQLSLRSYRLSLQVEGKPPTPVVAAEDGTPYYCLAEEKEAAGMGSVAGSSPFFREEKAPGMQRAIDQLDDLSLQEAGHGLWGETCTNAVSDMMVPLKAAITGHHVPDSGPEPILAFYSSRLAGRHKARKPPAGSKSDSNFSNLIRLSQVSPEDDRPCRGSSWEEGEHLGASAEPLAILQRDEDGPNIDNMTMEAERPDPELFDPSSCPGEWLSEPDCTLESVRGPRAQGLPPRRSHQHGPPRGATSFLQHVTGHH
Particulars: kinase HIPK4; for remaining activity at 1 µM: read-out: % of control at 1 µM.

The mark [8] stands for this setting: 10 µM, read-out: % of control at 10 µM.

T2 sequence (Q5VT25 whole entry): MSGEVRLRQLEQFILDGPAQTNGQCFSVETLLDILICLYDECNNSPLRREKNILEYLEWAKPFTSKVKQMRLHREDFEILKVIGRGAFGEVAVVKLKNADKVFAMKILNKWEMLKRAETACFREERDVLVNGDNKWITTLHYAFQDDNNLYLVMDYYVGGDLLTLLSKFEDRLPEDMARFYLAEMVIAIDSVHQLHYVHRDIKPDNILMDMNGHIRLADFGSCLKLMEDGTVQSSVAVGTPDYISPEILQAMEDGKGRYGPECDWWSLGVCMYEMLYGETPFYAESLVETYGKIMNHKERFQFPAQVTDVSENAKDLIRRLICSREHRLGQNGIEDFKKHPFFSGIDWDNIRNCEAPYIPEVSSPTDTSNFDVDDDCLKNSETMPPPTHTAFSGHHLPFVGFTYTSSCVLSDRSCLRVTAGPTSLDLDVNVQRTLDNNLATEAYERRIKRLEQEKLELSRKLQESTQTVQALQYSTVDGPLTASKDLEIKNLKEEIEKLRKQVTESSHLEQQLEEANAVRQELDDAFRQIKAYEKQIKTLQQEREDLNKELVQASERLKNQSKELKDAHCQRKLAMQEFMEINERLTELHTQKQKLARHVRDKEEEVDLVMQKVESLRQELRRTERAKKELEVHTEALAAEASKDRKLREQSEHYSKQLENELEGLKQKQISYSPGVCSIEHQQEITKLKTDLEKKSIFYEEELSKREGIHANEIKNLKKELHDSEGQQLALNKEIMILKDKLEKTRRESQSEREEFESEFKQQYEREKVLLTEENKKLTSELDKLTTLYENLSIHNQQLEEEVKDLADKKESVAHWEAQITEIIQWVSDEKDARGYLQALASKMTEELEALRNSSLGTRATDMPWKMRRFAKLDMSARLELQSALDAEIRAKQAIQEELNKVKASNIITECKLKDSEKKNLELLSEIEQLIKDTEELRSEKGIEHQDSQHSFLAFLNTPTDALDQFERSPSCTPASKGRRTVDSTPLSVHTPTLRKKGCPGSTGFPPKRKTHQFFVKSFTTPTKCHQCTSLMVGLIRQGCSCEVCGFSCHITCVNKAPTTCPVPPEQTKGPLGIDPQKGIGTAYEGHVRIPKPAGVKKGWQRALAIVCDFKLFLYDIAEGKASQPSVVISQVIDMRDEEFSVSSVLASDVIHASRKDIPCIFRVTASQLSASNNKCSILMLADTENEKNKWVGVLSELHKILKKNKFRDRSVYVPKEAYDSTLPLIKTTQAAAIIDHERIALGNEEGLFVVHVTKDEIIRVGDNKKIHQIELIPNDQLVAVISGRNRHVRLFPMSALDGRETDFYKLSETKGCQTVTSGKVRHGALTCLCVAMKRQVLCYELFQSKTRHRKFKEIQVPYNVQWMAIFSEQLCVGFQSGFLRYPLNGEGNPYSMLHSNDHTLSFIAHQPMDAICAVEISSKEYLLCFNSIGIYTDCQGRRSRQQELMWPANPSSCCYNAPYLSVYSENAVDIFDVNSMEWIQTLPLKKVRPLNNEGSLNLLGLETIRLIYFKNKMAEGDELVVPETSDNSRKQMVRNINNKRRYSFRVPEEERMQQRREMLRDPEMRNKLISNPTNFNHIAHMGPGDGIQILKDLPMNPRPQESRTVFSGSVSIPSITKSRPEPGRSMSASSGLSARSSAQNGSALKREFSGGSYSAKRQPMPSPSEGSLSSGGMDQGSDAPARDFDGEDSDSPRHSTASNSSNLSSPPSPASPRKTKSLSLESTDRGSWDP

Consider `Nc1cc(C(F)(F)F)c(-c2cc(N3CCOCC3)nc(N3CCOCC3)n2)cn1` [Buparlisib], for which the remaining activity at 1 µM at panel of 442 kinases [1] was determined as 86%; at panel of 442 kinases [2], 80%; on panel of 442 kinases [3], 94%; on panel of 442 kinases [4], 100%; at panel of 442 kinases [5] it was 88%; on panel of 442 kinases [6], 98%. The remaining activity at 1 µM at panel of 442 kinases [7] turned out to be 97%. The remaining activity at 10 µM at panel of 442 kinases [1] (10 µM, read-out: TAOK1 (% of control at 10 µM)) worked out at 82%; on panel of 442 kinases [2] (setting [8]), 100%; on panel of 442 kinases [3] (setting [8]), 100%; at panel of 442 kinases [4] (10 µM, read-out: TNK2 (% of control at 10 µM)) it was 100%; on panel of 442 kinases [5] (10 µM, read-out: PRKR (% of control at 10 µM)), 100%; at panel of 442 kinases [6] (10 µM, read-out: TGFBR2 (% of control at 10 µM)), 100%. The remaining activity at 10 µM at panel of 442 kinases [7] (setting [8]) stood at 100%.

For `Cn1c(=O)n(-c2ccc(C(C)(C)C#N)cc2)c2c3cc(-c4cnc5ccccc5c4)ccc3ncc21` [Dactolisib, 2-methyl-2-[4-(3-methyl-2-oxo-8-quinolin-3-yl-2,3-dihydroimidazo[4,5-c]quinolin-1-yl)-phenyl] propionitrile], the remaining activity at 1 µM at panel of 442 kinases [1] came to 70%; on panel of 442 kinases [2] it was 83%; at panel of 442 kinases [3] it was 100%; on panel of 442 kinases [4], 98%; on panel of 442 kinases [5], 95%; on panel of 442 kinases [6], 100%. Moreover, the remaining activity at 1 µM on panel of 442 kinases [7] came to 87%.

As to `COc1ncc(-c2ccc3nccc(-c4ccnnc4)c3c2)cc1NS(=O)(=O)c1ccc(F)cc1F` [Omipalisib], the remaining activity at 1 µM at panel of 442 kinases [1] stood at 100%; on panel of 442 kinases [2], 97%; on panel of 442 kinases [3], 63%; on panel of 442 kinases [4], 100%; on panel of 442 kinases [5] it was 84%; at panel of 442 kinases [6] it was 95%. Also, the remaining activity at 1 µM at panel of 442 kinases [7] amounted to 98%.

As to `FC(F)c1nc2ccccc2n1-c1nc(N2CCOCC2)nc(N2CCOCC2)n1` [ZSTK474, 2-(difluoromethyl)-1-[4,6-di(4-morpholinyl)-1,3,5-triazin-2-yl]-1H-benzimidazole], the remaining activity at 1 µM on panel of 442 kinases [1] is 74%; at panel of 442 kinases [2] it was 83%; at panel of 442 kinases [3] it was 100%; on panel of 442 kinases [4], 100%; at panel of 442 kinases [5], 93%; on panel of 442 kinases [6], 100%. Moreover, the remaining activity at 1 µM on panel of 442 kinases [7] is 77%.
